Test systems include A498; 786-0; SF-539; TK-10; SW-620; HCT-15; SK-OV-3; SN12C; NCI-H460; MOLT-4; CAKI-1; ACHN; COLO 205; SF-268; UO-31; SK-MEL-2; SK-MEL-28.
What all share (experiment): NCI-60 cell line screen, 48 h

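Five concentrations, 48 hours, 96-well plates. GI50 is the concentration that inhibits growth by half.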 Calls of active or inactive are those of the source. Rule as the data show it: active = GI50 up to about 1.1 µM and inactive = higher.

As to `CC(=O)OCC1OC(NC(=S)N/N=C2\CC(c3ccccc3)Oc3ccccc32)C(OC(C)=O)C(OC(C)=O)C1OC(C)=O` (centres undefined), the GI50 with A498 is > 100 µM (inactive); in the test on 786-0, > 100 µM (inactive); in the test with SF-539 it was > 100 µM (inactive); in the test on TK-10, > 100 µM (inactive); with SW-620, > 100 µM (inactive); with HCT-15, above 100 µM. Further, the GI50 in the test on SK-OV-3, in the test with SN12C, in the test on NCI-H460, in the test on MOLT-4, in the test on CAKI-1 and in the test with ACHN was > 100 µM (inactive) throughout. Moreover, the GI50 in the test with COLO 205, with SF-268 and in the test on UO-31 was > 100 µM (inactive) in each case.

With `O=C(c1ccc(Cl)cc1)N(C(=S)N1CCN(c2ccccc2)CC1)c1ccccc1`, the GI50 was > 100 µM (inactive) in the test with 786-0; > 100 µM (inactive) in the test on SF-539; > 100 µM (inactive) in the test on TK-10; > 100 µM (inactive) in the test on SW-620; > 100 µM (inactive) in the test on SK-MEL-2; above 100 µM with HCT-15. The GI50 in the test with SK-OV-3, with SK-MEL-28, with SN12C, in the test with NCI-H460, in the test on MOLT-4 and in the test with CAKI-1 was > 100 µM (inactive) in each case. Further, the GI50 in the test with ACHN, in the test on COLO 205, in the test with SF-268 and with UO-31 was > 100 µM (inactive) each time.

Consider `O=C(CC(=O)N1N=C(N2c3ccccc3Sc3ccccc32)CC1c1ccccc1)Nc1ccc(Cl)cc1` (centres undefined), for which the GI50 in the test on A498 is > 100 µM (inactive); in the test with 786-0, > 100 µM (inactive); in the test with SF-539, > 100 µM (inactive); in the test on TK-10 it was > 100 µM (inactive); in the test with SW-620, > 100 µM (inactive); in the test with HCT-15, above 100 µM. For the same compound, the GI50 with SK-OV-3, with SK-MEL-28, in the test with SN12C, in the test on NCI-H460, in the test with CAKI-1 and in the test with ACHN was > 100 µM (inactive) each time. Besides, the GI50 with COLO 205, in the test with SF-268 and in the test on UO-31 was > 100 µM (inactive) each time.

For `COc1ccc2c3c(c(C(=O)O)oc13)CCC2`, the GI50 in the test on 786-0 was > 100 µM (inactive); in the test on SF-539 it was > 100 µM (inactive); in the test with TK-10, > 100 µM (inactive); in the test on SW-620 it was > 100 µM (inactive); in the test with SK-MEL-2, > 100 µM (inactive); in the test on HCT-15, above 100 µM. Besides, the GI50 with SK-OV-3, in the test on SK-MEL-28, in the test with SN12C, with NCI-H460, in the test on MOLT-4 and in the test on ACHN was > 100 µM (inactive) each time. Also, the GI50 with COLO 205 was > 100 µM (inactive); with SF-268, > 100 µM (inactive); with UO-31 it was 40.7 µM (inactive).

In the case of `O=C1c2ccccc2C2(Br)C(=O)c3ccccc3C12` (centres undefined), the GI50 was > 100 µM (inactive) in the test on 786-0; > 100 µM (inactive) in the test with SF-539; > 100 µM (inactive) in the test on TK-10; > 100 µM (inactive) with SW-620; > 100 µM (inactive) in the test with SK-MEL-2; above 100 µM in the test with HCT-15. In addition, the GI50 in the test on SK-OV-3, with SK-MEL-28, in the test with SN12C, in the test on NCI-H460, with MOLT-4 and with CAKI-1 was > 100 µM (inactive) each time. For the same compound, the GI50 in the test on ACHN, in the test with COLO 205, with SF-268 and in the test on UO-31 was > 100 µM (inactive) in each case.

Regarding `COc1cc(Br)c(/C=N\c2cccc3cc(OC)c(OC)cc23)cc1OC`, the GI50 with 786-0 is 22.6 µM (inactive); in the test with SF-539 it was 22.1 µM (inactive); in the test with TK-10, 83.2 µM (inactive); with SW-620, 35.6 µM (inactive); with HCT-15, 31.4 µM; in the test with SK-OV-3 it was > 100 µM (inactive). Moreover, the GI50 in the test on SK-MEL-28 was 88.3 µM (inactive); in the test with SN12C it was 40.6 µM (inactive); with NCI-H460 it was > 100 µM (inactive); with MOLT-4, 26.8 µM (inactive); in the test on CAKI-1 it was 41.5 µM (inactive); with ACHN, 51.5 µM (inactive). Moreover, the GI50 with COLO 205 was 97.7 µM (inactive); in the test on SF-268, 45.4 µM (inactive); with UO-31, 27.9 µM (inactive).

With `C[N+]1(C)C/C(=C\c2ccccc2)C(=O)/C(=C/c2ccccc2)C1`, the GI50 was > 100 µM (inactive) in the test on A498; > 100 µM (inactive) in the test on 786-0; > 100 µM (inactive) in the test on SF-539; > 100 µM (inactive) in the test with TK-10; above 100 µM in the test on HCT-15; > 100 µM (inactive) with SK-OV-3. Moreover, the GI50 is > 100 µM (inactive) with SK-MEL-28; 18.5 µM (inactive) with SN12C; > 100 µM (inactive) with NCI-H460; 32.8 µM (inactive) with MOLT-4; > 100 µM (inactive) in the test with ACHN; > 100 µM (inactive) with COLO 205. The GI50 with SF-268 and with UO-31 was > 100 µM (inactive) in each case.

On to `O=C(O)c1oc2ccc([N+](=O)[O-])c3c2c1CCC3`, for which the GI50 was 98.9 µM (inactive) with 786-0; > 100 µM (inactive) in the test with SF-539; > 100 µM (inactive) in the test on TK-10; > 100 µM (inactive) in the test on SW-620; > 100 µM (inactive) with SK-MEL-2; > 100 µM (inactive) in the test with SK-MEL-28. Also, the GI50 with SN12C is > 100 µM (inactive); in the test on NCI-H460, > 100 µM (inactive); in the test on CAKI-1, > 100 µM (inactive); in the test with ACHN, > 100 µM (inactive); in the test on COLO 205 it was > 100 µM (inactive); with SF-268, 74.3 µM (inactive). Further, in the test with UO-31, the GI50 was > 100 µM (inactive).

`NCCNCCNCc1c2ccccc2c(CNCCNCCN)c2ccccc12`: the GI50 was 38.6 µM (inactive) in the test on 786-0; 37.5 µM (inactive) with SF-539; > 100 µM (inactive) in the test on TK-10; 90.4 µM (inactive) in the test on SW-620; > 100 µM (inactive) with SK-MEL-2; above 100 µM in the test on HCT-15. For the same compound, the GI50 with SK-OV-3 is > 100 µM (inactive); with SK-MEL-28 it was > 100 µM (inactive); in the test on SN12C, 58.2 µM (inactive); with NCI-H460, 31.2 µM (inactive); in the test on MOLT-4, 36.5 µM (inactive); in the test on CAKI-1, > 100 µM (inactive). Besides, the GI50 was > 100 µM (inactive) in the test on ACHN, 52.1 µM (inactive) in the test on COLO 205, 69.5 µM (inactive) in the test on SF-268 and > 100 µM (inactive) with UO-31.

On to `CSC1(C)CC2C(CC1N1CCCCC1)C2(C)C` (centres undefined), for which the GI50 with 786-0 was > 100 µM (inactive); in the test on SF-539, > 100 µM (inactive); in the test with TK-10, > 100 µM (inactive); with SK-MEL-2 it was > 100 µM (inactive); with HCT-15, above 100 µM; in the test on SK-OV-3, > 100 µM (inactive). Besides, the GI50 with SK-MEL-28, in the test with SN12C, with NCI-H460, with MOLT-4, in the test with ACHN and with COLO 205 was > 100 µM (inactive) each time. For the same compound, the GI50 in the test on SF-268 and in the test with UO-31 was > 100 µM (inactive) throughout.

The values are drawn from ChEMBL document CHEMBL1201862, “PubChem BioAssay data set” (2004).
